Data reported in US4517179A, “Rapid dissolving, uniform drug compositions and their preparation” (priority 1984, dated 1985).
Values after ≈ are worked out from the molar mass of the structure shown.

Legend:
[1] = 0.01N hydrochloric acid; cited from earlier work
[2] = result from metolazone usage; cited from earlier work
[3] = Particle size distribution by screen analysis; assay type: physicochemical; details: for particle size d16%: 16 weight percent; for particle size d50%: 50 weight percent; for particle size d84%: 84 weight percent
Protocol: where d is the particle diameter in μm at the indicated percentage by weight and σg is the geometric standard deviation.
The particle size distributions of drugs and excipients were determined by a screen analysis technique. A 5 gm sample of each test material was placed on the top screen of a set of six US standard screens of an Allen Bradley Sonic Sifter. The screens were pulsed for 15 minutes. The following screens were used: 80 mesh (180 μm), 100 mesh (150 μm), 140 mesh (106 μm), 200 mesh (75 μm), 270 mesh (53 μm) and 400 mesh (38 μm). The weights of the fractions retained on the screens were obtained. Particle sizes (d) at specific weight percents (16, 50, and 84) were obtained from a log probability plot of the data as described by Edmundson (Advances in Pharmaceutical Sciences, Bean, H.S. et al. Editors, Academic, London, England p. 95, 1967). These particle sizes are described as d16, d50, and d84.
The slopes of the lines from the plots were calculated to give the geometric standard deviation (σg).

Water solubility = assay type: physicochemical; details: for solubility: water
[4] = listed as fine-milled metolazone
[5] = listed as monocrystalline metolazone

Cc1ccccc1N1C(=O)c2cc(S(N)(=O)=O)c(Cl)cc2NC1C (centres unmarked) [amorphous and metastable metolazone]
dissolution rate relative to the stable modification (mp. 267°-270° C.) [1]: about 8 times faster

Cc1ccccc1N1C(=O)c2cc(S(N)(=O)=O)c(Cl)cc2NC1C (centres unmarked) [metolazone, 2-methyl-3-o-tolyl-6-sulfamyl-7-chloro-1,2,3,4-tetrahydro-4-quinazolinone]
side effects [2]: hypokalemia | particle size d16% [3, 4]: 155 μm | particle size d16% ([3]; listed as milled metolazone): 94 μm | particle size d16% [3, 5]: 460 μm | particle size d50% [3, 4]: 86 μm | particle size d50% ([3]; listed as milled metolazone): 56 μm | particle size d50% [3, 5]: 190 μm | particle size d84% [3, 4]: 48 μm | particle size d84% ([3]; listed as milled metolazone): 34 μm | particle size d84% [3, 5]: 83 μm | water solubility (Water solubility; 25° C.): approximately 60.3 mcg/ml | solubility (Water solubility; 25° C.): ~60 µg/mL (≈ 164 µM) | solubility (Water solubility; 36° C.): ~100 µg/mL (≈ 273 µM)

Nc1nc(N)c2nc(-c3ccccc3)c(N)nc2n1 [triamterene]
particle size d16% [3]: 76 μm | particle size d50% [3]: 41 μm | particle size d84% [3]: 17 μm
